In patent US20160237491A1, “METHODS FOR TREATING HCV” (AbbVie Inc., priority 2013, published 2016):

System: HCV
Test: Viral load in treatment-naïve patients on Compound 1 and ritonavir for 3 days, then added peginterferon and ribavirin, grouped by IL28B PM02 methylation
Type: in vivo, human
Conditions: FIG. 3
Protocol: Twenty-one (21) treatment-naïve patients were included in the study. The patients received Compound 1 and ritonavir for three days followed by the addition of peginterferon and ribavirin for a total of 12 weeks of combination treatment. DNA samples obtained prior to the initiation of treatment were analyzed for methylation in a CpG island in the IL28B promoter corresponding to SEQ ID NO:2 (PM02). Subjects were grouped based on methylation level of PM02. Eleven (11) subjects had methylation values below 45% (diamonds). Ten (10) subjects had methylation values above 45% (squares). Viral load was assessed on Day 1 (“D1”), Day 2 (“D2”), Day 3 (“D3”), Day 4 (“D4”), Day 5 (“D5”), and Day 10 (“D10”) of treatment.

Cc1cnc(C(=O)N[C@H]2CCCCC/C=C\[C@@H]3C[C@@]3(C(=O)NS(=O)(=O)C3CC3)NC(=O)[C@@H]3C[C@@H](Oc4nc5ccccc5c5ccccc45)CN3C2=O)cn1 [Compound 1, (2R,6S,13aS,14aR,16aS,Z)—N-(cyclopropylsulfonyl)-6-(5-methylpyrazine-2-carboxamido)-5,16-dioxo-2-(phenanthridin-6-yloxy)-1,2,3,5,6,7,8,9,10,11,13a,14,14a,15,16,16a-hexadecahydrocyclopropa[e]pyrrolo[1,2-a][1,4]diazacyclopentadecine-14a-carboxamide]
reduction in viral load (after 10 days of treatment, Compound 1 + ritonavir 3 days, then peginterferon and ribavirin added, both groups (PM02 methylation below 45% n=11, above 45% n=10)): dramatic reduction in viral load
effect of PM02 methylation status on response (treatment-naïve patients, 10 days of treatment): does not affect response
